Data: patent US20260152487A1 (Sitryx Therapeutics Limited, priority 2021, published 2026)

Molecular target: T1, recombinant human PKM2 (Homo sapiens, UniProt P14618)
T1 construct: His (N); purchased R&D Systems
Assay: Human PKM2 activation assay (Kinase-Glo Plus luminescent detection of generated ATP)
Format: biochemical
Conditions: for Emax: percentage activation normalised to DMSO vehicle (LOW) and 5 μM TEPP-46 (HIGH), read-out: hPKM2 Emax; for EC50: recombinant human PKM2 activation, 4-parameter logistic fit, read-out: hPKM2 EC50
Procedure: Compound activation of recombinant human PKM2 pyruvate kinase activity was determined by biochemical assay. N-terminal His-tagged hPKM2 was sourced from R&D Systems and its substrates phosphoenolpyruvate (PEP) and ADP from Sigma-Aldrich and 2Bscientific Ltd, respectively. The Kinase-Glo® Plus luminescence assay was from Promega. All other reagents were from Sigma-Aldrich. Test Compounds were prepared as 10 mM DMSO stocks and dilution series prepared in DMSO for direct dilution into Assay Buffer comprising 50 mM imidazole, 50 mM KCl, 7 mM MgCl2, 0.01% Tween20, 0.05% BSA (pH 7.2).
Human PKM2 was diluted into Assay Buffer comprising 50 mM imidazole, 50 mM KCl, 7 mM MgCl2, 0.01% Tween20, 0.05% BSA (pH 7.2) to a final concentration of […]. Enzyme-Assay Buffer mix was dispensed into a 384-well shallow-well white-walled plate (PerkinElmer) and Test Compounds added by acoustic dispense (Echo®, Labcyte Inc.).
After 60 minutes' incubation on an orbital shaker (300 rpm, 26° C.), enzyme activity was quantified by the luminescent detection of generated ATP. Kinase-Glo® Plus reagent was added to each well and the plates incubated for a further 15 minutes on an orbital shaker in the dark (300 rpm, 26° C.) before luminescence measurement on a plate reader (PHERAstar® FSX, BMG Labtech).
Percentage activation was calculated by normalising […] signals to plate LOW (DMSO vehicle) and HIGH (5 μM TEPP-46) controls. EC50 and Emax values were determined from 4-parameter logistic fits of compound concentration-response curves.

T1 sequence (P14618 2-531 limits assumed): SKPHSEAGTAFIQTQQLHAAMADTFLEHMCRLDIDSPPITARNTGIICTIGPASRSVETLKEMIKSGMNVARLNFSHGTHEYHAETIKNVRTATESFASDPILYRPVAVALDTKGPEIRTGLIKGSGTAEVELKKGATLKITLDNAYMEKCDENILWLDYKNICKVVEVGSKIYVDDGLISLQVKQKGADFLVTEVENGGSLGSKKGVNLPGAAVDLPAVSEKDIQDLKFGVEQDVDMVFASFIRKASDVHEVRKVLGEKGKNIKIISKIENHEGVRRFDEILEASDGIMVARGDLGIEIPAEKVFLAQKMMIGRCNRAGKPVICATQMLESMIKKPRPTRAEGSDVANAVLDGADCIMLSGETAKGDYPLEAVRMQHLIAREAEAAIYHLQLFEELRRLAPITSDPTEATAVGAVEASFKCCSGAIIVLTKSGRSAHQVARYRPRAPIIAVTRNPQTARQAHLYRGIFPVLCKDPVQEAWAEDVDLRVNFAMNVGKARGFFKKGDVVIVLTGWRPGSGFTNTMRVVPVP

Compound | Emax [%] | EC50 [nM]
CC(O)c1cccc(Cn2ncc3cc(S(=O)(=O)c4cnn(C)c4)ccc3c2=O)n1 (centres unmarked) [Example 274, 2-((6-(1-hydroxyethyl)pyridin-2-yl)methyl)-6-((1-methyl-1H-pyrazol-4-yl)sulfonyl)phthalazin-1(2H)-one] | 93 | 350
O=c1c2ccc(S(=O)(=O)c3cnc4c(c3)OCCO4)cc2cnn1Cc1cc[nH]n1 [Example 234, 2-((1H-pyrazol-3-yl)methyl)-6-((2,3-dihydro-[1,4]dioxino[2,3-b]pyridin-7-yl)sulfonyl)phthalazin-1(2H)-one] | 91.9 | 394
NC(=O)c1c(Cl)cccc1Cn1ncc2cc(S(=O)(=O)c3ccccc3)ccc2c1=O [Example 91, 2-chloro-6-((1-oxo-6-(phenylsulfonyl)phthalazin-2(1H)-yl)methyl)benzamide] | 89.9 | 554
Nc1cccc(Cn2ncc3cc(S(=O)(=O)c4ccc5c(c4)CCO5)ccc3c2=O)c1 [Example 143, 2-(3-aminobenzyl)-6-((2,3-dihydrobenzofuran-5-yl)sulfonyl)phthalazin-1(2H)-one] | 104 | 27.7
COC(C)c1nc(S(=O)(=O)c2ccc3c(=O)n(Cc4cc5n(n4)CCO5)ncc3c2)cs1 (centres unmarked) [Example 356] | 95.5 | 53
COc1ccc(Cn2ncc3cc(S(=O)(=O)c4cccc(OC)n4)ccc3c2=O)cn1 [Example 160, 6-(6-methoxypyridin-3-yl)methyl)phthalazin-1(2H)-onemethoxypyridin-2-ylsulfonyl)-2-((6-] | 83.3 | 237
Cc1nc(S(=O)(=O)c2ccc3c(=O)n(Cc4cc5n(n4)CCO5)ncc3c2)cs1 [Example 357] | 100 | 77.1
Cc1cccc(Cn2ncc3cc(S(=O)(=O)c4cnn(CCN)c4)ccc3c2=O)n1 [Example 277, 6-((1-(2-aminoethyl)-1H-pyrazol-4-yl)sulfonyl)-2-((6-methylpyridin-2-yl)methyl)phthalazin-1(2H)-one] | 105 | 304
COc1ccc(S(=O)(=O)c2ccc3c(=O)n(Cc4cccc(N)c4)ncc3c2)cn1 [Example 149, 2-(3-aminobenzyl)-6-((6-methoxypyridin-3-yl)sulfonyl)phthalazin-1(2H)-one] | 100 | 54.6
COc1ccc(Cn2ncc3cc(S(=O)(=O)c4ccn(CCO)n4)ccc3c2=O)cn1 [Example 280, 6-((1-(2-hydroxyethyl)-1H-pyrazol-3-yl)sulfonyl)-2-((6-methoxypyridin-3-yl)methyl)phthalazin-1(2H)-one] | 89.2 | 120
O=c1c2cc(NCCO)c(S(=O)(=O)c3ccccc3)cc2cnn1Cc1cccnc1O [Example 246, 7-((2-hydroxyethyl)amino)-2-((2-hydroxypyridin-3-yl)methyl)-6-(phenylsulfonyl)phthalazin-1(2H)-one] | 96.7 | 261
O=c1c2ccc(S(=O)(=O)c3cnn(C(F)F)c3)cc2cnn1Cc1cc[nH]n1 [Example 305] | 99.9 | –
COc1ccc(Cn2ncc3cc(S(=O)(=O)Nc4ccccc4)ccc3c2=O)cn1 [Example 122, 2-((6-methoxypyridin-3-yl)methyl)-1-oxo-N-phenyl-1,2-dihydrophthalazine-6-sulfonamide] | 60 | 590
Cn1ccc(Cn2ncc3cc(S(=O)(=O)c4ccccc4)cnc3c2=O)n1 [Example 250, 7-((1-methyl-1H-pyrazol-3-yl)methyl)-3-(phenylsulfonyl)pyrido[2,3-d]pyridazin-8(7H)-one] | 92.4 | 398
Cc1cc(Cn2ncc3cc(S(=O)(=O)c4ccc5c(c4)CCO5)ccc3c2=O)n[nH]1 [Example 209, 6-((2,3-dihydrobenzofuran-5-yl)sulfonyl)-2-((5-methyl-1H-pyrazol-3-yl)methyl)phthalazin-1(2H)-one] | 118 | 23.2
COc1ccc(F)c(Cn2ncc3cc(S(=O)(=O)c4cc[nH]n4)ccc3c2=O)n1 [Example 329] | 98.5 | 232
COc1ccc(Cn2ncc3cc(S(=O)(=O)c4cc[nH]n4)ccc3c2=O)nc1 [Example 325] | 111 | 151
COc1ccc(Cn2ncc3cc(S(=O)(=O)c4ccc(C)cn4)ccc3c2=O)cn1 [Example 115, 2-((6-methoxypyridin-3-yl)methyl)-6-(5-methylpyridin-2-ylsulfonyl)phthalazin-1(2H)-one] | 69.8 | 276

The remaining compounds from weak to strong by EC50, led by results:

Emax [%] | EC50 [nM] | Compound
103 | 813 | COc1ccc(S(=O)(=O)c2ccc3c(=O)n(Cc4ccncc4O)ncc3c2)cc1 [Example 105, 2-((3-hydroxypyridin-4-yl)methyl)-6-(4-methoxyphenylsulfonyl)phthalazin-1(2H)-one]
92.6 | 566 | COc1ccc(S(=O)(=O)c2ccc3c(=O)n(Cc4ccnc(O)c4)ncc3c2)cc1 [Example 3, 2-((2-hydroxypyridin-4-yl)methyl)-6-((4-methoxyphenyl)sulfonyl)phthalazin-1(2H)-one]
102 | 518 | Cc1cccc(Cn2ncc3cc(S(=O)(=O)c4cnn(C5CNC5)c4)ccc3c2=O)n1 [Example 276, 6-((1-(azetidin-3-yl)-1H-pyrazol-4-yl)sulfonyl)-2-((6-methylpyridin-2-yl)methyl)phthalazin-1(2H)-one]
77.5 | 456 | COc1ccnc(S(=O)(=O)c2ccc3c(=O)n(Cc4ccc(OC)nc4)ncc3c2)c1 [Example 165, 6-(4-methoxypyridin-2-ylsulfonyl)-2-((6-methoxypyridin-3-yl)methyl)phthalazin-1(2H)-one]
124 | 243 | O=c1c2ccc(S(=O)(=O)c3ccccc3)cc2cnn1Cc1cc(F)[nH]n1 [Example 111, 2-((5-fluoro-1H-pyrazol-3-yl)methyl)-6-(phenylsulfonyl)phthalazin-1(2H)-one]
80.7 | 222 | O=c1c2ccc(S(=O)(=O)c3ccccn3)cc2cnn1Cc1cc[nH]n1 [Example 211, 2-((1H-pyrazol-3-yl)methyl)-6-(pyridin-2-ylsulfonyl)phthalazin-1(2H)-one]
67.2 | 152 | COc1ccc(Cn2ncc3cc(S(=O)(=O)c4cnc(C(F)F)s4)ccc3c2=O)cn1 [Example 173, 6-(2-(difluoromethyl)thiazol-5-ylsulfonyl)-2-((6-methoxypyridin-3-yl)methyl)phthalazin-1(2H)-one]
77.3 | 135 | COc1ccc(Cn2ncc3cc(S(=O)(=O)c4ccccc4Cl)ccc3c2=O)cn1 [Example 163, 6-(2-chlorophenylsulfonyl)-2-((6-methoxypyridin-3-yl)methyl)phthalazin-1(2H)-one]
103 | 129 | Cc1cccc(Cn2ncc3cc(S(=O)(=O)c4cnn(CCO)c4)ccc3c2=O)n1 [Example 269]
105 | 128 | N=[S@](=O)(c1cn[nH]c1)c1ccc2c(=O)n(Cc3ccc4c(n3)CCO4)ncc2c1 (stereo in doubt) [Example 363]
105 | 98.8 | COC(C)c1nc(S(=O)(=O)c2ccc3c(=O)n(Cc4nc(C)c(C)cc4F)ncc3c2)cs1 (centres unmarked) [Example 353]
98.8 | 94.8 | COc1ccc(Cn2ncc3cc(S(=O)(=O)c4ccc(F)cc4)ccc3c2=O)cn1 [Example 147, 6-((4-fluorophenyl)sulfonyl)-2-((6-methoxypyridin-3-yl)methyl)phthalazin-1(2H)-one]
102 | 88.1 | COc1ccc(Cn2ncc3cc(S(=N)(=O)c4ccc(OC(F)F)cc4)ccc3c2=O)cn1 (racemic) [Example 134, 6-(4-(difluoromethoxy)phenylsulfonimidoyl)-2-((6-methoxypyridin-3-yl)methyl)phthalazin-1(2H)-one]
97.2 | 71.2 | COc1ccc(Cn2ncc3cc(S(=O)(=O)c4ccc(OC)nc4)ccc3c2=O)cn1 [Example 175, 2-((6-methoxypyridin-3-yl)methyl)-6-(6-methoxypyridin-3-ylsulfonyl)phthalazin-1(2H)-one]
93.2 | 60.2 | COc1ccc(Cn2ncc3cc(S(=O)(=O)c4csc(C(N)=O)c4)ccc3c2=O)cn1 [Example 118, 4-(2-((6-methoxypyridin-3-yl)methyl)-1-oxo-1,2-dihydrophthalazin-6-ylsulfonyl)thiophene-2-carboxamide]
92.5 | 45.3 | Cc1[nH]nc(Cn2ncc3cc(S(=O)(=O)c4cnn(C(F)F)c4)ccc3c2=O)c1Cl [Example 349]
108 | 23.8 | Cn1ccc(Cn2ncc3cc(S(=O)(=O)c4ccc(OC(F)F)cc4)ccc3c2=O)n1 [Example 212, 6-((4-(difluoromethoxy)phenyl)sulfonyl)-2-((1-methyl-1H-pyrazol-3-yl)methyl)phthalazin-1(2H)-one]
106 | 23.3 | O=c1c2ccc(S(=O)(=O)c3cn[nH]c3)cc2cnn1Cc1ccc2c(n1)NCCO2 [Example 354]
